pEC50, pKi: −log10 of the molar value.
Key:
RXRβ = biological target: T1, RXRβ (UniProt P28704); experiment: ligand binding assay, RXRβ; conditions: read-out: RXR Bind Ki β
T1 sequence (P28704 1-520): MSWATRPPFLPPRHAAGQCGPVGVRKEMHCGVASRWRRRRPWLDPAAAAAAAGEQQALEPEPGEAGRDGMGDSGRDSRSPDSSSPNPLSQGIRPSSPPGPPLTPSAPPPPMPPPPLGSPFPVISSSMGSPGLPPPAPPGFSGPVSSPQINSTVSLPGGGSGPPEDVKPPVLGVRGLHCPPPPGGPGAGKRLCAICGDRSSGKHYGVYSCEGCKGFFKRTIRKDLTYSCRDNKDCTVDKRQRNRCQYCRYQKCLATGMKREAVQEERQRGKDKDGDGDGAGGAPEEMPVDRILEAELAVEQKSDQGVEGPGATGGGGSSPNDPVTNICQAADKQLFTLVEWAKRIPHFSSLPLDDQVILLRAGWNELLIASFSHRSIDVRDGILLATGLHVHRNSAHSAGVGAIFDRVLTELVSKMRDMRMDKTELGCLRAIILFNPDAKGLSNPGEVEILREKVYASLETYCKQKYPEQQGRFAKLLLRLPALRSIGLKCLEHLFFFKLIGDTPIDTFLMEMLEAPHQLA
From the text: (§1) A holoreceptor transactivation assay and a ligand binding assay which measure the antagonist/agonist like activity of the compounds of the invention, or their ability to bind to the several retinoid receptor subtypes, respectively, are described in published PCT Application No. WO WO93/11755 (particularly on pages 30–33 and 37–41) published on Jun. 24, 1993, the specification of which is also incorporated herein by reference. […] The results obtained in this assay are expressed in EC50 numbers, as they are also in the chimeric receptor transactivation assay. The results of the ligand binding assay are expressed in Ki numbers. (See Cheng et al. Biochemical Pharmacology Vol. 22 pp 3099–3108, expressly incorporated herein by reference.)
(§2) In Table 1 NA stands for not active at all as an agonist. ND stands for not determined. The first row of numbers pertaining to each compound is the measured EC50 number. […] The third row of numbers pertaining to each compound is the binding Ki number.

RXRα = biological target: T2, RXRα (Homo sapiens, UniProt P19793); experiment: ligand binding assay, RXRα; conditions: read-out: RXR Bind Ki α
T2 construct: expressed in transfected cells
T2 sequence (P19793 1-462): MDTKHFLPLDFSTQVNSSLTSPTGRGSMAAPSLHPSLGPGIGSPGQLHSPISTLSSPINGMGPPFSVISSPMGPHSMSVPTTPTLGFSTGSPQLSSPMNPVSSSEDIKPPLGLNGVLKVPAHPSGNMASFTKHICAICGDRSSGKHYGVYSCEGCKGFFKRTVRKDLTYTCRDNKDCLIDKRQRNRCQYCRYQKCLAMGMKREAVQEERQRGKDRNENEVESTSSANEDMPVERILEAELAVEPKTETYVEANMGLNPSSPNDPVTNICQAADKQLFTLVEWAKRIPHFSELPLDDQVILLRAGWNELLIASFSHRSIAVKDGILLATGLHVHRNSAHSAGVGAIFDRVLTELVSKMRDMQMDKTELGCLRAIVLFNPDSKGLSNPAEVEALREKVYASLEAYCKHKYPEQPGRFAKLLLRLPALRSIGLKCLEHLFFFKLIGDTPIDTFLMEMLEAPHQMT
From the text: as §1, §2

RARβ [1] = biological target: T3, RARβ (Homo sapiens, UniProt P10826); experiment: chimeric receptor transactivation assay, RARβ; type: cell-based; conditions: for pEC50: NA = not active at all as an agonist, read-out: RAR Trans. EC50 β; for RAR β efficacy in percentage as compared to the standard compound: number in brackets
T3 sequence (P10826 183-417 limits assumed): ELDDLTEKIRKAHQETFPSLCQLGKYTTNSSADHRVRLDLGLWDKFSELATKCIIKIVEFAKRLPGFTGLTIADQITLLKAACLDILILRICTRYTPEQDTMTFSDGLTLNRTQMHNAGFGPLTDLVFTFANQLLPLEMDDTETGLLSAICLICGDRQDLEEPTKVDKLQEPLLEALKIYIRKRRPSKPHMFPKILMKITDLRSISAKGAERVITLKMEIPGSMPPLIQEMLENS
From the text: The specification of U.S. Pat. No. 5,455,265 is hereby expressly incorporated by reference.
Table 1 discloses the activity of certain exemplary compounds of the invention in the above-described receptor transactivation and binding assays. Particularly, the transactivation data pertaining to activation of the RAR receptors were obtained in the chimeric assay, and the transactivation data pertaining to the activation of RXR receptors were obtained in the holoreceptor assay.
Efficacy in a transactivation assay is expressed as a percentage of the maximum potency attained by the compound compared to a standard which, in this case, is the compound named (2E,4E,1′S,2′S)-3-methyl-5-[2′-methyl-2′-(5,5,8,8-tetramethyl-5,6,7,8-tetrahydro-naphthalen-2-yl)-cyclopropyl]-penta-2,4-dienoic acid.
as §2

RARβ [2] = biological target: T4, RARβ (Homo sapiens, UniProt P10826); experiment: ligand binding assay, RARβ; conditions: read-out: RAR Bind. Ki β
T4 sequence (P10826 1-455): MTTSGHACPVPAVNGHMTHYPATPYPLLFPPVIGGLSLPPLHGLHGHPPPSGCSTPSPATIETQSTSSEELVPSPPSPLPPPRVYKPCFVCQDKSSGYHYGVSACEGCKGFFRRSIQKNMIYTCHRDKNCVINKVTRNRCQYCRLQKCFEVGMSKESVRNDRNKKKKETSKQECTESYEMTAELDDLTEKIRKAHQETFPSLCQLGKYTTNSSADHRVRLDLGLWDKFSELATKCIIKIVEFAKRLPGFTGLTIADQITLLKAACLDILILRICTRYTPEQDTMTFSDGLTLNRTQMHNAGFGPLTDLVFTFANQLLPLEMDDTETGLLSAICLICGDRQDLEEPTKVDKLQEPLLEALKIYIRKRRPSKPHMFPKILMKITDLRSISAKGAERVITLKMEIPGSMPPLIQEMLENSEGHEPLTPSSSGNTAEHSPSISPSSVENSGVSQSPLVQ
From the text: as §1, §2

RARα = biological target: T5, RARα (Homo sapiens, UniProt P10276); experiment: ligand binding assay, RARα; conditions: read-out: RAR Bind. Ki α
T5 sequence (P10276 1-462): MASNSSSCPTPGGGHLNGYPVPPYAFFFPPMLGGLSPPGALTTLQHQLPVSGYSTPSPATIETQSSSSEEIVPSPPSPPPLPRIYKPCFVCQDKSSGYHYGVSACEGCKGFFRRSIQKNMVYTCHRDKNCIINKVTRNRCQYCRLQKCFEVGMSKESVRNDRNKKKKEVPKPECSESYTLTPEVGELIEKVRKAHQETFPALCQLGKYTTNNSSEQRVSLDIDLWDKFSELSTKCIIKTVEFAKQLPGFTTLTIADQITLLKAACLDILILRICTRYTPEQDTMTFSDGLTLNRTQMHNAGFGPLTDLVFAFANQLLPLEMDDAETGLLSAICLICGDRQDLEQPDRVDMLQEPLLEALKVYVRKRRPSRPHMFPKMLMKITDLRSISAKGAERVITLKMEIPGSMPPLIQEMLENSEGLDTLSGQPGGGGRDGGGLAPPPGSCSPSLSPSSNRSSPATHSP
From the text: as §1, §2

pKi (RXRβ)	pKi (RXRα)	pEC50 (RARβ [1])	RAR β efficacy in percentage as compared to the standard compound (RARβ [1]) [%]	pKi (RARβ [2])	pKi (RARα)	SMILES
7.64	7.66	6.60	11	6.27	6.82	CCOc1cc2c(cc1\C(CC)=C(F)/C=C/C(C)=C/C(=O)O)C(C)(C)CCC2(C)C [Compound 2, (2E,4E,6E)-7-(3-Ethoxy-5,5,8,8-tetramethyl-5,6,7,8-tetrahydronaphthalen-2-yl)-6-fluoro-3-methylnona-2,4,6-trienoic acid]
7.24	8.22	6.73	16	6.31	6.23	CCCOc1cc2c(cc1\C(C)=C(F)/C=C/C(C)=C/C(=O)O)C(C)(C)CCC2(C)C [Compound 4]

From patent US7019034B2, “Compositions and methods for reducing serum glucose and triglyceride levels in diabetic mammals” (Allergan, Inc., priority 2003, dated 2006)
